{
  "source": "patent US20110178171A1",
  "about": "“COMPOUNDS FOR CANCER THERAPY” (China Medical University, priority 2010, published 2011)",
  "key": {"[1]": {"test_system": "LNCaP cells", "assay": "MTT growth inhibition assay, LNCaP", "conditions": "for Viability (%) LNCaP: 24 h (Table 2); for Viability (%) / IC50: LNCaP; for Viability (%): 24 h (Table 1); for IC50: androgen-dependent prostate adenocarcinoma", "protocol": "(§1) The LNCaP (androgen-sensitive), PC3 (androgen in-dependent), human prostate cancer and normal human fibroblast 3T3 were obtained from American Type Culture Collection (Manassas, Va.) were maintained with RPMI 1640 medium containing 10% FBS and […] each of penicillin and streptomycin at […] in a humidified atmosphere with 5% CO2.\n(§2) The viability of the cells after treated with various chemicals was evaluated using MTT assay preformed in triplicate (Mosmann T. 1983. Rapid colorimetric assay for cellular growth and survival: application to proliferation and cytotoxicity assays”. Journal of immunological methods. 65 (1-2): 55-63). Briefly, the cancer cells (5×10^3) were incubated in 96-well plates containing […] of the culture medium. Cells were permitted to adhere for 12-18 h then washed with phosphate buffered saline (PBS). Solutions were always prepared fresh by dissolving 0.2% DMSO or K8 in culture medium and added to various kind of tumor. After 48 h of exposure, K8 containing medium was removed, washed with PBS and replaced by fresh medium. The cells in each well were then incubated in culture medium with […] MTT for 4 h. After the medium were removed, […] of DMSO and […] of glycine buffer (0.1 M glycine, 0.1 M NaCl, pH 10.5) were added to each well. Absorbance at 570 nm of the maximum was detected by a PowerWave X Microplate ELISA Reader (Bio-TeK Instruments, Winoski, Vt.). The absorbance for DMSO treated cells was considered as 100%. The results were determined by three independent experiments.\nCytotoxicity of K8 (Isochaihulactone) on LNCaP cells was examined in the manner described above. The cells were treated with KS (Isochaihulactone), its Z-form, or its E-form of different concentrations ranging from 2.5 to 20 μM for 24 h.\nCytotoxicities of Z-K8 (Isochaihulactone) on LNCaP (AR-dependent), and PC3 (AR-independent) tumor cell line were examined in the manner described above. The cells were treated with the Z- or E-form K8 (Isochaihulactone) of different concentrations ranging from 0.3125 to 5 μM for 24 h."}, "[2]": {"test_system": "oral cancer cell line OECM-1", "assay": "MTT growth inhibition assay, OECM-1", "assay_type": "cell-based", "conditions": "OECM-1, oral squamous cell carcinoma", "protocol": "The results were determined by three independent experiments.\nBesides, the above assay was also conducted on gastric cancer cell line NCI-N87, liver cancer cell line HepG2 and J5, lung cancer cell line A549, and oral cancer cell line OECM-1."}, "[3]": {"test_system": "PC3 cells", "assay": "MTT growth inhibition assay, PC3", "assay_type": "cell-based, human", "conditions": "for Viability (%) PC-3: 24 h (Table 2)", "protocol": "as §1, §2\nCytotoxicities of Z-K8 (Isochaihulactone) on LNCaP (AR-dependent), and PC3 (AR-independent) tumor cell line were examined in the manner described above. […]"}, "[4]": {"test_system": "LNCaP xenografts", "assay": "Antitumor activity in vivo, LNCaP xenograft", "parameters": "species or system mice", "protocol": "Xenograft mice as a model system to study cytotoxicity effect of isochaihulactone in vivo: the implantation of cancer cells (LNCaP) were carried out similarly to previous reports. Female congenital athymic BALB/c nude (nu/nu) mice were purchased from National Sciences Council (Taipei, Taiwan) and all procedures were performed in compliance with the standard operating procedures of the Laboratory Animal Center of China Medical University (Taichung, Taiwan). All experiments were carried out using 6-8-week old mice weighing 18-22 g. The animals were s.c. implanted with 1×10^7 cell sinto the back of mice. When the tumor reached 80-120 mm3 in volume, animals were divided randomly into control and test groups consisting of six mice per group (day 0). Daily s.c. administration of z-K8, dissolved in a vehicle of 20% Tween 80 in normal saline (v/v) was performed from days 0 to 4 far from the inoculated tumor sites (>1.5 cm). The control group was treated with vehicle only. The mice were weighed three times a week up to days 21-28 to monitor the effects and the same time the tumor volume was determined by measurement of the length (L) and width (W) of the tumor. The tumor volume at day n (TVn) was calculated as TV (mm3)=(L×W^2)/2. The relative tumor volume at day n (RTVn) versus day 0 was expressed according to the following formula: RTVn=TVn/TV0. Tumor regression (T/C(%)) in treated versus control mice was calculated using: T/C(%)=(mean RTV of treated group)/(mean RTV of control group)×100. Xenograft tumors as well as other vital organs of treated and control. The results are shown in Tables 6 and 7 and FIGS. 6 and 7.\n(§3) Assays were carried out to examine the inhibition of human xenografts growth in vivo by isochaihulactone. Briefly, LNCaP tumor-bearing mice were administered s.c. with vehicle control, 30 mg/kg E-K8, and Z-K8 respectively on days 0-4 for 5 days. The volumes of the tumors were measured. […] Scale bars, […]. Data represent means W S.D. of tumor volume at each time\nas §3, with “Z-K8. Again,” for “isochaihulactone. Briefly,”, “Z-K8 15” for “30”, “mg/kg” for “mg/kg E-K8, and Z-K8 respectively”, “time point.” for “time”"}, "[5]": {"conditions": "30 mg/kg s.c. days 0-4, day 1 after administration"}, "[6]": {"conditions": "30 mg/kg s.c. days 0-4, day 4 after administration"}, "[7]": {"conditions": "30 mg/kg s.c. days 0-4, day 7 after administration"}, "[8]": {"conditions": "30 mg/kg s.c. days 0-4, day 10 after administration"}, "[9]": {"conditions": "30 mg/kg s.c. days 0-4, day 13 after administration"}, "[10]": {"conditions": "30 mg/kg s.c. days 0-4, day 16 after administration"}, "[11]": {"conditions": "30 mg/kg s.c. days 0-4, day 19 after administration"}},
  "data": [
    {"smiles": "COc1cc(/C=C2\\C(=O)OCC2Cc2ccc3c(c2)OCO3)cc(OC)c1OC", "note": "(racemic) [Z-K8, Racemic (Z)-β-(3′,4′-Methylenedioxybenzyl)-α-(3′,4′,5′-trimethoxybenzylidene)-γ-butyrolactone]", "values": [
      {"measurement": "Viability (%) LNCaP", "setting": "[1]; 0.625 μM", "value": 68.9, "unit": "%"},
      {"measurement": "Viability (%) LNCaP", "setting": "[1]; 1.25 μM", "value": 43.7, "unit": "%"},
      {"measurement": "Viability (%) LNCaP", "setting": "[1]; 2.5 μM", "value": 21.7, "unit": "%"},
      {"measurement": "Viability (%) LNCaP", "setting": "[1]; 5 μM", "value": 18.4, "unit": "%"},
      {"measurement": "Viability (%) LNCaP", "setting": "[1]; 10 μM", "value": 16.9, "unit": "%"},
      {"measurement": "Viability (%)", "setting": "[1]; 2.5 μM", "value": 33.0, "unit": "%"},
      {"measurement": "Viability (%)", "setting": "[1]; 5 μM", "value": 18.7, "unit": "%"},
      {"measurement": "Viability (%)", "setting": "[1]; 10 μM", "value": 17.2, "unit": "%"},
      {"measurement": "Viability (%)", "setting": "[1]; 20 μM", "value": 16.1, "unit": "%"},
      {"measurement": "IC50", "setting": "[1]", "value": 1250, "unit": "nM"},
      {"measurement": "IC50", "setting": "[1]; listed as Z-form of K8", "value": 1000, "unit": "nM"},
      {"measurement": "IC50", "setting": "[2]", "value": 1000, "unit": "nM"},
      {"measurement": "Viability (%) PC-3", "setting": "[3]; 0.625 μM", "value": 92.0, "unit": "%"},
      {"measurement": "Viability (%) PC-3", "setting": "[3]; 1.25 μM", "value": 84.5, "unit": "%"},
      {"measurement": "Viability (%) PC-3", "setting": "[3]; 2.5 μM", "value": 74.9, "unit": "%"},
      {"measurement": "Viability (%) PC-3", "setting": "[3]; 5 μM", "value": 44.9, "unit": "%"},
      {"measurement": "Viability (%) PC-3", "setting": "[3]; 10 μM", "value": 28.3, "unit": "%"},
      {"measurement": "IC50", "setting": "[3]; PC3, androgen-independent prostate adenocarcinoma", "value": 100000, "unit": "nM"},
      {"measurement": "Relative tumor volume", "setting": "[4]; 15 mg/kg s.c. days 0-4, day 1 after administration", "value": 1},
      {"measurement": "Relative tumor volume", "setting": "[4]; 15 mg/kg s.c. days 0-4, day 4 after administration", "value": 1.59},
      {"measurement": "Relative tumor volume", "setting": "[4]; 15 mg/kg s.c. days 0-4, day 7 after administration", "value": 1.91},
      {"measurement": "Relative tumor volume", "setting": "[4]; 15 mg/kg s.c. days 0-4, day 10 after administration", "value": 1.94},
      {"measurement": "Relative tumor volume", "setting": "[4]; 15 mg/kg s.c. days 0-4, day 13 after administration", "value": 2.13},
      {"measurement": "Relative tumor volume", "setting": "[4]; 15 mg/kg s.c. days 0-4, day 16 after administration", "value": 1.79},
      {"measurement": "Relative tumor volume", "setting": "[4]; 15 mg/kg s.c. days 0-4, day 19 after administration", "value": 2.00},
      {"measurement": "Relative tumor volume", "setting": "[4]; 15 mg/kg s.c. days 0-4, day 21 after administration", "value": 2.23},
      {"measurement": "Relative tumor volume", "setting": "[4]; [5]", "value": 1},
      {"measurement": "Tumor growth volume (mm^3)", "setting": "[4]; [5]", "value": 0, "unit": "mm^3"},
      {"measurement": "Relative tumor volume", "setting": "[4]; [6]", "value": 1.11},
      {"measurement": "Tumor growth volume (mm^3)", "setting": "[4]; [6]", "value": 0, "unit": "mm^3"},
      {"measurement": "Relative tumor volume", "setting": "[4]; [7]", "value": 1.12},
      {"measurement": "Tumor growth volume (mm^3)", "setting": "[4]; [7]", "value": 90, "unit": "mm^3"},
      {"measurement": "Relative tumor volume", "setting": "[4]; [8]", "value": 1.20},
      {"measurement": "Tumor growth volume (mm^3)", "setting": "[4]; [8]", "value": 202.5, "unit": "mm^3"},
      {"measurement": "Relative tumor volume", "setting": "[4]; [9]", "value": 1.23},
      {"measurement": "Tumor growth volume (mm^3)", "setting": "[4]; [9]", "value": 260, "unit": "mm^3"},
      {"measurement": "Relative tumor volume", "setting": "[4]; [10]", "value": 1.47},
      {"measurement": "Tumor growth volume (mm^3)", "setting": "[4]; [10]", "value": 255, "unit": "mm^3"},
      {"measurement": "Relative tumor volume", "setting": "[4]; [11]", "value": 1.23},
      {"measurement": "Tumor growth volume (mm^3)", "setting": "[4]; [11]", "value": 200, "unit": "mm^3"},
      {"measurement": "Relative tumor volume", "setting": "[4]; 30 mg/kg s.c. days 0-4, day 21 after administration", "value": 1.85},
      {"measurement": "Tumor growth volume (mm^3)", "setting": "[4]; 30 mg/kg s.c. days 0-4, day 22 after administration", "value": 225, "unit": "mm^3"},
      {"measurement": "Tumor growth volume (mm^3)", "setting": "[4]; 30 mg/kg s.c. days 0-4, day 25 after administration", "value": 375, "unit": "mm^3"},
      {"measurement": "Tumor growth volume (mm^3)", "setting": "[4]; 30 mg/kg s.c. days 0-4, day 28 after administration", "value": 435, "unit": "mm^3"},
      {"measurement": "Tumor growth volume (mm^3)", "setting": "[4]; 30 mg/kg s.c. days 0-4, day 31 after administration", "value": 633.5, "unit": "mm^3"},
      {"measurement": "tumor growth inhibition, in words", "setting": "[4]; LNCaP tumor-bearing mice, 30 mg/kg s.c. days 0-4 (FIG. 6)", "value": "better tumor growth inhibition than E-form K8"}
    ]}
  ]
}
